Laboratory results reported in patent US6586596B2, “Acetylcholine enhancers” (priority 1998, dated 2003).
Like-named read-outs stand apart in the source and are kept apart here.

Assays:
Type in all cases: in vivo
Cynomologous monkeys = test: Hepatotoxic analysis, four-week oral study; details: oral; for Clinical signs vomiting: four weeks (10, 5, 10 mg/kg/day regimens); as to Clinical signs vomiting: key: − no remarkable change; ↑ increase; ↓ decrease; + slight; ++ severe (diarrhea)
Experimental: During the testing period, these animals were dosed with three different regimens: first, animals were dosed with 10 mg/kg/day for 7 days, followed by 32 days-washout period, second, animals were dosed with 5 mg/kg/day for 14 days, and thereafter the animals were dosed with 10 mg/kg/day for 7 days. The following parameters were examined: body weight, clinical signs, food consumption, blood biochemistry (GOT, GPT, ALP, LDH, γ-GTP, ChE, Bil, T.Pro, Alb, A/G ratio, T.Cho, NEFA, TG).

AChE = biological target: T1, AChE (Rattus norvegicus, UniProt P37136); details: 1 hour after dosing
T1 construct: from tissue; host or cells: rat brain (hippocampus, striatum, frontal cortex, parietal cortex)
T1 sequence (P37136 32-614): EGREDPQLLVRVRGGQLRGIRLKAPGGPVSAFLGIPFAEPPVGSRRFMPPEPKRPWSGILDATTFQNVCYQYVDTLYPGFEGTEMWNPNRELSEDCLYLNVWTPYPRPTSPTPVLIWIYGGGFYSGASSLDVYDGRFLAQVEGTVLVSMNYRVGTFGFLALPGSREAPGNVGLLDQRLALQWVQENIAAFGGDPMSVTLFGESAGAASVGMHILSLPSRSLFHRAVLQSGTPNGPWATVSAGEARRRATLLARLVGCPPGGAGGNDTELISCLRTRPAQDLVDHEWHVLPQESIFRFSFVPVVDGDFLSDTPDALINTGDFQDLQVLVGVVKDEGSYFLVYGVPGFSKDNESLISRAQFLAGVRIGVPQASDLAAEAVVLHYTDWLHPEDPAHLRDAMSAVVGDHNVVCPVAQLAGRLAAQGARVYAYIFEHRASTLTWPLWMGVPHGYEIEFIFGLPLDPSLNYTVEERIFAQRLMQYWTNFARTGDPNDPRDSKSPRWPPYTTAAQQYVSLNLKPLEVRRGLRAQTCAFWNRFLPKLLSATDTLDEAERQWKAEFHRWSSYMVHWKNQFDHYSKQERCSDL
Experimental: After 1 hour, rats were sacrificed and brains were isolated and divided into several portions. AChE activity in preparations from hippocampus, striatum, frontal cortex and parietal cortex was determined by Ellman's method.

[1] = system: extracellular levels of ACh in hippocampus; test: ACh release in hippocampus, microdialysis in freely moving rats; details: for ACh content in perfusate increased: hippocampus
Experimental: ACh content in perfusate obtained from hippocampus (Bregma, A: −5.8 mm, L: 5.0 mm, H: 4.0 mm) of brain were continuously detected by means of HPLC and ECD through the microdialysis system using freely moving rats (See Messamore and Kawashima, supra). After an equilibration period, five fractions were allowed to obtain basal ACh content. Test substances were injected i.p., and thereafter, microdialytic analysis was conducted for 3 hr.

COc1c2c(nc3ccccc13)CN(CCC1CCN(Cc3ccccc3)CC1)C2=O [Cm.A, 2-[2-(1-benzylpiperizin-4-yl)ethyl]-2,3-dihydro-9-methoxy-1H-pyrrolo[3,4-b]quinolin-1-one hemifumarate]
Blood biochemistry (Cynomologous monkeys; F, four weeks): ↑: TG
Clinical signs softstool (Cynomologous monkeys; F, four weeks): ±
Food consumption (Cynomologous monkeys; F, four weeks): −
Clinical signs vomiting (Cynomologous monkeys; F): −
Blood biochemistry (Cynomologous monkeys; M, four weeks): ↑: TG
Clinical signs softstool (Cynomologous monkeys; M, four weeks): −
Food consumption (Cynomologous monkeys; M, four weeks): −
Clinical signs vomiting (Cynomologous monkeys; M): −
blood biochemical tests (Cynomologous monkeys; four weeks): small increase in TG
clinical signs (Cynomologous monkeys; four weeks): minimal adverse clinical signs
food consumption and body weight (Cynomologous monkeys; four weeks): no remarkable change in food consumption and body weight
AChE activity Frontal cortex (AChE; 1 mg/kg p.o.): 48.1 nmol/min/mg protein
AChE activity Hippocampus (AChE; 1 mg/kg p.o.): 37.6 ± 0.8 nmol/min/mg protein
AChE activity Parietal cortex (AChE; 1 mg/kg p.o.): 27.3 ± 0.5 nmol/min/mg protein
AChE activity Striatim (AChE; 1 mg/kg p.o.): 238.9 nmol/min/mg protein
AChE activity Frontal cortex (AChE; 3 mg/kg p.o.): 56 nmol/min/mg protein
AChE activity Hippocampus (AChE; 3 mg/kg p.o.): 42.1 ± 1.3 nmol/min/mg protein
AChE activity Parietal cortex (AChE; 3 mg/kg p.o.): 31.3 ± 1.6 nmol/min/mg protein
AChE activity Striatim (AChE; 3 mg/kg p.o.): 219.9 nmol/min/mg protein
AChE activity Frontal cortex (AChE; 10 mg/kg p.o.): 58.4 nmol/min/mg protein
AChE activity Hippocampus (AChE; 10 mg/kg p.o.): 48.3 ± 2.9 nmol/min/mg protein
AChE activity Parietal cortex (AChE; 10 mg/kg p.o.): 32.6 ± 1.7 nmol/min/mg protein
AChE activity Striatim (AChE; 10 mg/kg p.o.): 274.0 nmol/min/mg protein
inhibition of AChE activity (text on Table 3) (AChE; p.o.): inhibition of AChE in a nondose dependent manner
centrally acting cholinergic symptoms (tremor, chewing and yawning) ([1]; hippocampus study, i.p., data not shown): Few centrally acting cholinergic symptoms
ACh content in perfusate increased ([1]; 10 mg/kg i.p.): 164%
ACh content in perfusate increased ([1]; 30 mg/kg i.p.): 552%
